Measurements from article PMC5218480 (PLoS ONE, 2017).

System: MV-4-11 cells
Test: Gene expression microarray analysis (Affymetrix PrimeView) and GSEA
Assay type: cell-based, human
Design: RFU PODN (11730768_x_at) / Fold change /veh PODN (11730768_x_at) / RFU LINC00158 (11744669_a_at) / Fold change /veh LINC00158 (11744669_a_at) / RFU DUSP10 (11751237_a_at) / Fold change /veh DUSP10 (11751237_a_at) / RFU ID3 (11757404_x_at) / Fold change /veh ID3 (11757404_x_at) / RFU PLEKHG5 (11737974_s_at) / Fold change /veh PLEKHG5 (11737974_s_at) / RFU LRRC4B (11730491_at) / Fold change /veh LRRC4B (11730491_at) / RFU GIMAP4 (11747438_a_at) / Fold change /veh GIMAP4 (11747438_a_at) / RFU KRT8 (11758183_x_at) / Fold change /veh KRT8 (11758183_x_at) / RFU CNN1 (11734310_a_at) / Fold change /veh CNN1 (11734310_a_at) / RFU VPS37D (11726825_at) / Fold change /veh VPS37D (11726825_at) / RFU C10orf10 (11716522_x_at) / Fold change /veh C10orf10 (11716522_x_at) / RFU KIR2DL2 /// KIR2DL4 /// KIR2DL5A /// KIR2DL5B /// KIR2DS1 /// KIR2DS2 /// KIR2DS3 /// KIR2DS4 /// KIR3DL3 /// KIR3DL3 /// KIR3DS1 (11738374_at) / Fold change /veh KIR2DL2 /// KIR2DL4 /// KIR2DL5A /// KIR2DL5B /// KIR2DS1 /// KIR2DS2 /// KIR2DS3 /// KIR2DS4 /// KIR3DL3 /// KIR3DL3 /// KIR3DS1 (11738374_at) / RFU C1QL1 (11718748_at) / Fold change /veh C1QL1 (11718748_at) / RFU TMPRSS4 (11747572_a_at) / Fold change /veh TMPRSS4 (11747572_a_at) / RFU HAMP (11756126_x_at) / Fold change /veh HAMP (11756126_x_at) / RFU RNFT2 (11725882_a_at) / Fold change /veh RNFT2 (11725882_a_at) / RFU NR4A2 (11747474_a_at) / Fold change /veh NR4A2 (11747474_a_at) / RFU ABCC12 (11746883_a_at) / Fold change /veh ABCC12 (11746883_a_at) / RFU TMEM136 (11760407_x_at) / Fold change /veh TMEM136 (11760407_x_at) / RFU CLDN22 /// WWC2 (11732394_at) / Fold change /veh CLDN22 /// WWC2 (11732394_at) / RFU HLA-DPB1 (11760878_x_at) / Fold change /veh HLA-DPB1 (11760878_x_at) / RFU SPINT1 (11716480_a_at) / Fold change /veh SPINT1 (11716480_a_at) / RFU GAP43 (11754022_s_at) / Fold change /veh GAP43 (11754022_s_at) / RFU A4GNT (11735810_at) / Fold change /veh A4GNT (11735810_at) / RFU PRB3 (11715151_x_at) / Fold change /veh PRB3 (11715151_x_at) / RFU TUBB4B (11761932_at) / Fold change /veh TUBB4B (11761932_at) / RFU CAPN14 (11732068_a_at) / Fold change /veh CAPN14 (11732068_a_at) / RFU TMCC2 (11721928_a_at) / Fold change /veh TMCC2 (11721928_a_at) / RFU IRGQ (11745062_a_at) / Fold change /veh IRGQ (11745062_a_at) / RFU FAM174B (11720279_a_at) / Fold change /veh FAM174B (11720279_a_at) / RFU TMPRSS4 (11748680_a_at) / Fold change /veh TMPRSS4 (11748680_a_at) / RFU FAM212B (11763350_a_at) / Fold change /veh FAM212B (11763350_a_at) / RFU PLEKHG5 (11743358_a_at) / Fold change /veh PLEKHG5 (11743358_a_at) / RFU ZSCAN30 (11745921_a_at) / Fold change /veh ZSCAN30 (11745921_a_at) / RFU CMKLR1 (11741424_a_at) / Fold change /veh CMKLR1 (11741424_a_at) / RFU LOC101060620 /// MAPK8IP1 (11723275_at) / Fold change /veh LOC101060620 /// MAPK8IP1 (11723275_at) / RFU SPTSSB (11747773_x_at) / Fold change /veh SPTSSB (11747773_x_at) / RFU PRSS12 (11739890_at) / Fold change /veh PRSS12 (11739890_at) / RFU BIN1 (11741810_x_at) / Fold change /veh BIN1 (11741810_x_at) / RFU WNT11 (11732464_a_at) / Fold change /veh WNT11 (11732464_a_at) / RFU C10orf10 (11716521_a_at) / Fold change /veh C10orf10 (11716521_a_at) / RFU C5orf56 (11738089_at) / Fold change /veh C5orf56 (11738089_at) / RFU CYB561 (11721691_x_at) / Fold change /veh CYB561 (11721691_x_at) / RFU ANKRD19P (11752326_a_at) / Fold change /veh ANKRD19P (11752326_a_at) / RFU OR2T12 /// OR2T33 /// OR2T8 (11738714_s_at) / Fold change /veh OR2T12 /// OR2T33 /// OR2T8 (11738714_s_at) / RFU VCAN (11748164_a_at) / Fold change /veh VCAN (11748164_a_at) / RFU JSRP1 (11732532_at) / Fold change /veh JSRP1 (11732532_at) / RFU KRTAP10-11 (11738290_x_at) / Fold change /veh KRTAP10-11 (11738290_x_at) / RFU MYO3A (11730013_a_at) / Fold change /veh MYO3A (11730013_a_at) / RFU EBF3 (11725865_a_at) / Fold change /veh EBF3 (11725865_a_at) / RFU CAMK2N1 (11719241_x_at) / Fold change /veh CAMK2N1 (11719241_x_at) / RFU C5orf56 (11738088_a_at) / Fold change /veh C5orf56 (11738088_a_at) / RFU OLFML3 (11715873_a_at) / Fold change /veh OLFML3 (11715873_a_at) / RFU LOC100653217 /// NTM (11731650_a_at) / Fold change /veh LOC100653217 /// NTM (11731650_a_at) / RFU MAPK11 (11762145_a_at) / Fold change /veh MAPK11 (11762145_a_at) / RFU FIZ1 (11724087_x_at) / Fold change /veh FIZ1 (11724087_x_at) / RFU OASL (11726364_x_at) / Fold change /veh OASL (11726364_x_at) / RFU SOX15 (11748057_x_at) / Fold change /veh SOX15 (11748057_x_at) / RFU CD79A (11719716_a_at) / Fold change /veh CD79A (11719716_a_at) / RFU HIST1H1D (11736915_at) / Fold change /veh HIST1H1D (11736915_at) / RFU CASKIN2 (11723855_a_at) / Fold change /veh CASKIN2 (11723855_a_at) / RFU LOC730098 (11760151_x_at) / Fold change /veh LOC730098 (11760151_x_at) / RFU OR4N2 (11742367_at) / Fold change /veh OR4N2 (11742367_at) / RFU PRRT2 (11749266_a_at) / Fold change /veh PRRT2 (11749266_a_at) / RFU SNX32 (11753110_a_at) / Fold change /veh SNX32 (11753110_a_at) / RFU CDHR5 (11726645_a_at) / Fold change /veh CDHR5 (11726645_a_at) / RFU RCAN1 (11760418_a_at) / Fold change /veh RCAN1 (11760418_a_at) / RFU FAM167A (11723789_a_at) / Fold change /veh FAM167A (11723789_a_at) / RFU FAM26E (11764081_at) / Fold change /veh FAM26E (11764081_at) / RFU ISYNA1 (11749810_s_at) / Fold change /veh ISYNA1 (11749810_s_at) / RFU ACY1 (11761880_at) / Fold change /veh ACY1 (11761880_at) / RFU 11764098_at / Fold change /veh 11764098_at / RFU SAMD14 (11745864_x_at) / Fold change /veh SAMD14 (11745864_x_at) / RFU NPB (11741838_a_at) / Fold change /veh NPB (11741838_a_at) / RFU TMPRSS6 (11731388_a_at) / Fold change /veh TMPRSS6 (11731388_a_at) / RFU KRTAP10-2 (11738614_at) / Fold change /veh KRTAP10-2 (11738614_at) / RFU ARHGAP8 /// PRR5-ARHGAP8 (11727945_x_at) / Fold change /veh ARHGAP8 /// PRR5-ARHGAP8 (11727945_x_at) / RFU KRTAP5-7 /// NADSYN1 (11734609_at) / Fold change /veh KRTAP5-7 /// NADSYN1 (11734609_at) / RFU RASL12 (11751679_a_at) / Fold change /veh RASL12 (11751679_a_at) / RFU CDKN2B (11736163_a_at) / Fold change /veh CDKN2B (11736163_a_at) / RFU PRF1 (11729649_at) / Fold change /veh PRF1 (11729649_at) / RFU, ZNF638 /// ZNF638-IT1 / Fold change vs veh, ZNF638 /// ZNF638-IT1 / RFU, PANK3 / Fold change vs veh, PANK3 / RFU, SH3YL1 / Fold change vs veh, SH3YL1 / RFU, ZEB2 / Fold change vs veh, ZEB2 / RFU, NRIP1 / Fold change vs veh, NRIP1 / RFU, PTTG1IP / Fold change vs veh, PTTG1IP / RFU, CAPN2 / Fold change vs veh, CAPN2 / RFU, MED14 / Fold change vs veh, MED14 / RFU, SNORA58 / Fold change vs veh, SNORA58 / RFU, C1orf63 / Fold change vs veh, C1orf63 / RFU, LRRFIP1 / Fold change vs veh, LRRFIP1 / RFU, NDUFAF7 / Fold change vs veh, NDUFAF7 / RFU, SLC12A2 / Fold change vs veh, SLC12A2 / RFU, IBTK / Fold change vs veh, IBTK / RFU, ESF1 / Fold change vs veh, ESF1 / Fold change vs veh, TMEM50B / RFU, TAOK1 / Fold change vs veh, TAOK1 / RFU, ACBD3 / Fold change vs veh, ACBD3 / RFU, TMA16 / Fold change vs veh, TMA16 / RFU, RWDD3 / Fold change vs veh, RWDD3 / RFU, BCAT1 / Fold change vs veh, BCAT1 / RFU, EDEM3 / Fold change vs veh, EDEM3 / RFU, TMEM33 / Fold change vs veh, TMEM33 / RFU, WDR75 / Fold change vs veh, WDR75 / RFU, AHCTF1 / Fold change vs veh, AHCTF1 / RFU, TFRC / Fold change vs veh, TFRC / RFU, ZDHHC17 / Fold change vs veh, ZDHHC17 / RFU, NOM1 / Fold change vs veh, NOM1 / RFU, ARL8B / Fold change vs veh, ARL8B / RFU, ZBTB11 / Fold change vs veh, ZBTB11 / RFU, TAMM41 / Fold change vs veh, TAMM41 / RFU, KIAA1704 /// LOC100996395 / Fold change vs veh, KIAA1704 /// LOC100996395 / RFU, ING1 / Fold change vs veh, ING1 / RFU, TRMT61B / Fold change vs veh, TRMT61B / RFU, FUBP3 / Fold change vs veh, FUBP3 / RFU, TP53 / Fold change vs veh, TP53 / RFU, TNKS2 / Fold change vs veh, TNKS2 / RFU, ZFP14 / Fold change vs veh, ZFP14 / RFU, ACTR2 / Fold change vs veh, ACTR2 / RFU, PPP3R1 / Fold change vs veh, PPP3R1 / RFU, PIK3R1 / Fold change vs veh, PIK3R1 / RFU, HNRNPA1 / Fold change vs veh, HNRNPA1 / RFU, RNF170 / Fold change vs veh, RNF170 / RFU, ZNF28 / Fold change vs veh, ZNF28 / RFU, RNGTT / Fold change vs veh, RNGTT / RFU, OGT / Fold change vs veh, OGT / RFU, BRD1 / Fold change vs veh, BRD1 / RFU, MARS / Fold change vs veh, MARS / RFU, ZNF655 / Fold change vs veh, ZNF655 / RFU, FAHD1 / Fold change vs veh, FAHD1 / RFU, BDP1 / Fold change vs veh, BDP1 / RFU, LRRCC1 / Fold change vs veh, LRRCC1 / RFU, ARID1A / Fold change vs veh, ARID1A / RFU, ZNF146 / Fold change vs veh, ZNF146 / RFU, ZNF330 / Fold change vs veh, ZNF330 / RFU, GPN3 / Fold change vs veh, GPN3 / RFU, C9orf123 / Fold change vs veh, C9orf123 / RFU, N4BP2L2 / Fold change vs veh, N4BP2L2 / RFU, ARFIP1 / Fold change vs veh, ARFIP1 / RFU, FAM179B / Fold change vs veh, FAM179B / RFU, BCL10 / Fold change vs veh, BCL10 / RFU, UHRF1BP1L / Fold change vs veh, UHRF1BP1L / RFU, BET1 / Fold change vs veh, BET1 / RFU, CNOT2 / Fold change vs veh, CNOT2 / RFU, ZNF268 / Fold change vs veh, ZNF268 / Fold change vs veh, ZNF507 / RFU, DGCR2 / Fold change vs veh, DGCR2 / RFU, WDSUB1 / Fold change vs veh, WDSUB1 / Fold change vs veh, HSP90B1 /// MIR3652 / RFU, ADSS / Fold change vs veh, ADSS / RFU, GK / Fold change vs veh, GK / RFU, ZNF148 / Fold change vs veh, ZNF148 / RFU, TAF9 / Fold change vs veh, TAF9 / RFU, SLC1A5 / Fold change vs veh, SLC1A5 / RFU, SLMO2 / Fold change vs veh, SLMO2 / RFU, ABCC4 / Fold change vs veh, ABCC4 / RFU, LOC101060439 /// RAP1B / Fold change vs veh, LOC101060439 /// RAP1B / RFU, RFX7 / Fold change vs veh, RFX7 / RFU, GTPBP10 / Fold change vs veh, GTPBP10 / RFU, CNEP1R1 / Fold change vs veh, CNEP1R1 / RFU, BIVM-ERCC5 /// ERCC5 / Fold change vs veh, BIVM-ERCC5 /// ERCC5 / RFU, ILF3 / Fold change vs veh, ILF3 / RFU 11762660_at / Fold change /veh 11762660_at / RFU VCAN (11757783_s_at) / Fold change /veh VCAN (11757783_s_at) / RFU DDX43 (11728927_at) / Fold change /veh DDX43 (11728927_at) / RFU KRT8 (11758188_x_at) / Fold change /veh KRT8 (11758188_x_at) / RFU NKD1 (11759106_at) / Fold change /veh NKD1 (11759106_at) / RFU SRD5A1 (11742802_a_at) / Fold change /veh SRD5A1 (11742802_a_at) / RFU TPSAB1 /// TPSB2 (11721975_s_at) / Fold change /veh TPSAB1 /// TPSB2 (11721975_s_at) / RFU GSTM3 (11746129_a_at) / Fold change /veh GSTM3 (11746129_a_at) / RFU IL23R (11737362_x_at) / Fold change /veh IL23R (11737362_x_at) / RFU TMEM51 (11727254_a_at) / Fold change /veh TMEM51 (11727254_a_at) / RFU PIWIL2 (11732686_x_at) / Fold change /veh PIWIL2 (11732686_x_at) / RFU ORM1 (11744905_x_at) / Fold change /veh ORM1 (11744905_x_at) / RFU CCDC152 (11743942_at) / Fold change /veh CCDC152 (11743942_at) / RFU ECM1 (11717891_a_at) / Fold change /veh ECM1 (11717891_a_at) / RFU IL23R (11748794_a_at) / Fold change /veh IL23R (11748794_a_at) / RFU TNFAIP8L3 (11732012_x_at) / Fold change /veh TNFAIP8L3 (11732012_x_at) / RFU MBOAT4 (11741988_at) / Fold change /veh MBOAT4 (11741988_at) / RFU 11764193_at / Fold change /veh 11764193_at / RFU TMEM53 (11763286_at) / Fold change /veh TMEM53 (11763286_at) / RFU MAGEB2 (11727129_at) / Fold change /veh MAGEB2 (11727129_at) / RFU TMEM200A (11744735_a_at) / Fold change /veh TMEM200A (11744735_a_at) / RFU CCDC152 (11751479_a_at) / Fold change /veh CCDC152 (11751479_a_at) / RFU FAM211A (11726209_a_at) / Fold change /veh FAM211A (11726209_a_at) / RFU RGS16 (11746705_a_at) / Fold change /veh RGS16 (11746705_a_at) / RFU VCAN (11755009_s_at) / Fold change /veh VCAN (11755009_s_at) / RFU RHOB (11743442_s_at) / Fold change /veh RHOB (11743442_s_at) / RFU RGS16 (11720943_a_at) / Fold change /veh RGS16 (11720943_a_at) / RFU RGS16 (11720944_at) / Fold change /veh RGS16 (11720944_at) / RFU, VPS4B / Fold change vs veh, VPS4B / RFU, CREB1 / Fold change vs veh, CREB1 / RFU, DNAJC13 / Fold change vs veh, DNAJC13 / RFU, GNAQ / Fold change vs veh, GNAQ / RFU, CDK5R1 / Fold change vs veh, CDK5R1 / RFU, ZRANB3 / Fold change vs veh, ZRANB3 / RFU, CUL4A / Fold change vs veh, CUL4A / RFU, CCNY / Fold change vs veh, CCNY / RFU, UFL1 / Fold change vs veh, UFL1 / RFU, COG3 / Fold change vs veh, COG3 / RFU, DIAPH2 / Fold change vs veh, DIAPH2 / RFU, SKA2 / Fold change vs veh, SKA2 / RFU, AFF3 / Fold change vs veh, AFF3 / RFU, LMF1 / Fold change vs veh, LMF1 / RFU, IPO11 / Fold change vs veh, IPO11 / RFU, DFFB / Fold change vs veh, DFFB / RFU, FOXP1 / Fold change vs veh, FOXP1 / RFU, CARD8 / Fold change vs veh, CARD8 / RFU, STRN3 / Fold change vs veh, STRN3 / RFU, ADK / Fold change vs veh, ADK / RFU, RASSF2 / Fold change vs veh, RASSF2 / RFU, WIPF1 / Fold change vs veh, WIPF1 / RFU, LARP1B / Fold change vs veh, LARP1B / RFU, RASA1 / Fold change vs veh, RASA1 / RFU, RB1 / Fold change vs veh, RB1 / RFU, PPFIA1 / Fold change vs veh, PPFIA1 / RFU, MAT2A / Fold change vs veh, MAT2A / RFU, CCT5 / Fold change vs veh, CCT5 / RFU, WDR92 / Fold change vs veh, WDR92 / RFU, CUX1 / Fold change vs veh, CUX1 / RFU, TTC7A / Fold change vs veh, TTC7A / RFU, TMEM135 / Fold change vs veh, TMEM135 / RFU, DEPTOR / Fold change vs veh, DEPTOR / RFU, CPM / Fold change vs veh, CPM / RFU, DNAJB6 / Fold change vs veh, DNAJB6 / RFU, CACNA2D3 / Fold change vs veh, CACNA2D3 / RFU, DTX4 / Fold change vs veh, DTX4 / RFU, TFCP2 / Fold change vs veh, TFCP2 / RFU, GMCL1 /// GMCL1P1 / Fold change vs veh, GMCL1 /// GMCL1P1 / RFU, AEBP2 / Fold change vs veh, AEBP2 / RFU, SNHG1 /// SNORD22 /// SNORD25 /// SNORD26 /// SNORD27 /// SNORD28 /// SNORD29 /// SNORD31 / Fold change vs veh, SNHG1 /// SNORD22 /// SNORD25 /// SNORD26 /// SNORD27 /// SNORD28 /// SNORD29 /// SNORD31 / Fold change (Aza/veh), C12orf56 (ProbeSet 11735607_a_at) / Fold change (ACY-1035/veh), C12orf56 (ProbeSet 11735607_a_at) / Fold change (Aza/veh), FGFR1OP (ProbeSet 11751329_s_at) / Fold change (ACY-1035/veh), FGFR1OP (ProbeSet 11751329_s_at) / Fold change (Aza/veh), VPS36 (ProbeSet 11739960_a_at) / Fold change (ACY-1035/veh), VPS36 (ProbeSet 11739960_a_at) / RFU SYPL1 (11715823_x_at) / Fold change /veh SYPL1 (11715823_x_at) / RFU IGFBP7 (11715501_s_at) / Fold change /veh IGFBP7 (11715501_s_at) / RFU REEP3 (11722064_at) / Fold change /veh REEP3 (11722064_at) / RFU IGLL1 (11728026_x_at) / Fold change /veh IGLL1 (11728026_x_at): dose or concentration left out as unconfirmed
Conditions: ProbeSet 11723944_a_at; LIST B

Nc1ccc(-c2cccs2)cc1NC(=O)c1ccc2c(c1)cc(C1CC1)n2CCN1CCOCC1 [ACY-1035]
Fold change vs veh, PTTG1IP: 0.91
